According to EPA's ToxValDB 9.5 (doi:10.2903/j.efsa.2010.1669):
In brackets after ≈: the same amount, converted by molar mass.

Assays:
Apis mellifera = settings: acute; duration: 48 hours; dermal; mortality
Colinus virginianus = settings: for LD50: acute, oral, mortality
Rattus norvegicus = settings: for NOAEL: body weight
Oryctolagus sp. = settings: developmental; development
Daphnia magna = settings: chronic/long-term; duration: 21 days; reproduction
Tagia sp. = settings: acute; duration: 14 days; mortality
Canidae = settings: oral, Dog Other, organ weight
Aphidius rhopalosiphi = assay: LR50; higher = less toxic; settings: not reported; mortality

CCCC(=NOCC)C1=C(O)CC(C2CCCSC2)CC1=O (stereo unspecified) [Cycloxydim]
LD50 (Apis mellifera): > 100 µg/piece | LC50 (Oncorhynchus mykiss; acute, duration: 96 hours, mortality): 220 µg/mL (≈ 676 µM) | NOEC (Oncorhynchus mykiss; chronic/long-term, duration: 28 days, growth): 21.5 mg/L | LD50 (Colinus virginianus; diet): 497 mg/kg-day | LD50 (Colinus virginianus): > 2000 mg/kg-day | NOEC (Colinus virginianus; reproduction developmental): 65.4 mg/kg-day | LD50 (Rattus norvegicus; acute, oral, mortality): 3830 mg/kg-day | NOAEL (Rattus norvegicus; chronic, duration: 18 months): 7 mg/kg-day | NOAEL (Rattus norvegicus; chronic, duration: 24 months): 7 mg/kg-day | NOAEL (Rattus norvegicus; reproduction developmental): 9.7 mg/kg-day | NOAEL (Oryctolagus sp.): 200 mg/kg-day | NOEC (Daphnia magna): 62.5 mg/L | LC50 (Tagia sp.): > 1000 mg/kg | NOAEL (Canidae; chronic, duration: 1 years): 10 mg/kg-day | NOAEL (Canidae; subchronic, duration: 3 months): 10 mg/kg-day | LR50 (Aphidius rhopalosiphi): 90.2 g/ha
